Ka, Ratio and Vmax data for eleven molecules are collected here from ChEMBL document CHEMBL1124635, “A probe for octopamine receptors: synthesis of 2-[(4-azido-2,6-diethylphenyl)imino]imidazolidine and its tritiated derivative, a potent reversible-irreversible activator of octopamine-sensitive adenylate cyclase” (J Med Chem, 1989).

Data set [1] is described as follows: Kinetic constant (Ka) of compound against octopamine receptor. It is filed as ADME.
A short description of data set [2]: Ratio of (Ka) of octopamine to that of compound. Format: ADME.
In data set [3] the test system is Lampyridae. Nature of the data set: Vmax is determined from stimulation of firefly light organ adenylate cyclase. It is filed as functional.
The subject of data set [4] is Lampyridae. Nature of the data set: V max is determined from stimulation of firefly light organ adenylate cyclase. It is filed as functional.

On to `CCc1cc(N=[N+]=[N-])cc(CC)c1N=C1NCCN1`, for which, in data set [1], the Ka came to 350 nM. Further, the Ratio in data set [2] is given as 70.

Regarding `CCc1c(Br)c(N)c(Br)c(CC)c1N=C1NCCN1`, the Ratio in data set [2] is 15. Take `CN(CCCl)c1cc(Cl)c(N=C2NCCN2)c(Cl)c1`: the Ratio in data set [2] is listed as 6.

`CCc1cccc(CC)c1NC1=NCCN1`: the Vmax with Lampyridae [3] came out at 100%. Moreover, the Ratio in data set [2] was 12.

For `CCc1c(Br)c(N)c(Br)c(CC)c1NC1=NCCN1`, in the data set with Lampyridae [4], the Vmax came to 24%.

As to `CCc1cc(N)cc(CC)c1N=C1NCCN1`, the Ratio in data set [2] turned out to be 1.3. In the case of `NCC(O)c1ccc(O)cc1` (stereo not given) [OCTOPAMINE], in data set [2], the Ratio stood at 1. In the data set on Lampyridae [4], the Vmax was determined as 100%.

Take `CCc1cc(N=[N+]=[N-])cc(CC)c1NC1=NCCN1`: the Vmax in the data set on Lampyridae [4] and with Lampyridae [4] (tested as the 3H-labelled form) was 100% in each case. Turning to `CN(CCCl)c1cc(Cl)c(NC2=NCCN2)c(Cl)c1`, the Vmax with Lampyridae [4] stood at 5%. On to `[3H]c1c(CC)c(N=C2NCCN2)c(CC)c([3H])c1N=[N+]=[N-]`, for which, in data set [2], the Ratio was 86.

For `CCc1cc(N)cc(CC)c1NC1=NCCN1`, the Vmax in the data set on Lampyridae [4] amounted to 82%.
